Reference: patent publication US11306075B2, “Benzofuran, benzothiophene, and indole analogs that inhibit the formation of tau oligomers and their method of use” (OLIGOMERIX INC., priority 2016, dated 2022)
Where a name gives a salt, the structure may show the parent alone.

molecular target: recombinant human tau 4R2N (Homo sapiens (Human), UniProt P10636); experiment: Confirmatory Assay (CONFA), SDS-PAGE quantification of tau monomer and oligomers; assay type: biochemical; conditions: tau target 300 nM, Tris-HCl pH 7.4, room temperature 3 hours, compound 0.098 uM-50 uM
Sequence (P10636 other isoform, or with tags, fused parts or gaps): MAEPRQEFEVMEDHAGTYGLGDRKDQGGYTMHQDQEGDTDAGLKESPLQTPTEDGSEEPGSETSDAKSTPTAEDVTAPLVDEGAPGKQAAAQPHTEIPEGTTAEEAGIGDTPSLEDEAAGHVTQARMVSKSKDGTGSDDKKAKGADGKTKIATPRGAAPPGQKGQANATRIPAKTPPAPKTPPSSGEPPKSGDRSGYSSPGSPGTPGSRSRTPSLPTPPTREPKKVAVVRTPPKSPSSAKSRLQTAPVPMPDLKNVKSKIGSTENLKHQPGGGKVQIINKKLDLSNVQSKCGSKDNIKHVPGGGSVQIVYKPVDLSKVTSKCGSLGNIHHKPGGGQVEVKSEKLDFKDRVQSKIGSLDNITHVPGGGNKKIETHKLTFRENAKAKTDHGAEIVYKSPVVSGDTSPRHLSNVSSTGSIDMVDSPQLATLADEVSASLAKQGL
Procedure: Bacterial recombinant human tau 4R2N (the largest isoform of tau in the central nervous system, 441 amino acids in length, Seq ID 1) constructs with either 6×-His or StrepII N-terminal epitope tags were purified from bacterial lysate using denaturing conditions to prepare tau in its monomeric form.
CONFA Assay: Confirmatory Assay (CONFA) used as a secondary screen for confirming the mechanism of action of compounds identified as hits using the ALA assay. The assay is performed using a similar procedure as ALA except that it utilizes SDS-PAGE for visualization and quantification of tau monomer and aggregated species (dimer, trimer, tetramer, pentamer, etc.). Only a single construct of tau without epitope tags is necessary, but the assay can use the same target prepared for the ALA assay also.
For the CONFA assay, Tau target (300 nM) was prepared in buffer (Tris-HCl pH 7.4) and was incubated at room temperature for 3 hours with vehicle control (DMSO) and a dose range of a compound of the disclosure (0.098 uM-50 uM). Samples were mixed with an equal volume of 2×SDS sample buffer (4% SDS, 20% glycerol, 0.004% bromphenol blue, 125 mM Tris HCl, pH 7.0) to resolve tau monomer and disulfide-finked oligomers on 4-20% gradient polyacrylamide gels (Biorad) along with positive control (non-oligomerized tau target). The gels were stained with Oriole Fluorescent Gel Stain (BioRad) and imaged using the FluorChem R system (Protein Simple). AlphaView software (Protein Simple) was used for quantification of tau monomer and oligomers.

Row | IC50 [µM] | Structure (SMILES)
1 | 3.23 | Cc1ccc(-c2c(CCC(=O)N3CCC(O)CC3)oc3ccc(Br)cc23)o1 [Ex. 13, 3-[5-Bromo-3-(5-methyl-furan-2-yl)-benzofuran-2-yl]-1-(4-hydroxy-piperidin-1-yl)-propan-1-one]
2 | 17.5 | COc1ccc(-c2ccc3c(-c4ccc(C)o4)c(CCC(C)=O)oc3c2)cn1 [Ex. 28, 4-(6-(6-Methoxypyridin-3-yl)-3-(5-methylfuran-2-yl)benzofuran-2-yl)butan-2-one]
3 | 7.38 | CC(=O)CCc1oc2ccc(-c3cncnc3)cc2c1-c1ccc(C)cc1 [Ex. 29, 4-(5-(pyrimidin-5-yl)-3-p-tolylbenzofuran-2-yl)butan-2-one, di HCl Salt]
4 | 0.364 | COc1cccc(-c2ccc3oc(CCC(C)=O)c(-c4ccc(C)o4)c3c2)c1 [Ex. 5, 4-(5-(3-Methoxyphenyl)-3-(5-methylfuran-2-yl)benzofuran-2-yl)butan-2-one]
5 | 20.4 | CC(=O)CCc1oc2cc(-c3cncnc3)ccc2c1-c1ccc(C)o1 [Ex. 30, 4-(3-(5-methylfuran-2-yl)-6-(pyrimidin-5-yl)benzofuran-2-yl)butan-2-one, di HCl Salt]
6 | 37.1 | CC(=O)CCc1oc2ccc(-c3cccnc3)cc2c1-c1ccc(C)o1 [Ex. 3, 4-(3-(5-Methylfuran-2-yl)-5-(pyridin-3-yl)benzofuran-2-yl)butan-2-one]
7 | 22.5 | Cc1ccc(-c2c(CCC(=O)O)oc3ccc(Br)cc23)o1 [Ex. 12, 3-[5-Bromo-3-(5-methyl-furan-2-yl)-benzofuran-2-yl]-propionic Acid]
8 | 1.32 | Cc1ccc(-c2c(CCC(C)(C)O)oc3ccc(Br)cc23)o1 [Ex. 15, 4-(5-Bromo-3-(5-methylfuran-2-yl)benzofuran-2-yl)-2-methylbutan-2-ol]
9 | 7.57 | CC(=O)CCc1oc2cc(-c3ccncc3)ccc2c1-c1ccc(C)o1 [Ex. 22, 4-(3-(5-Methylfuran-2-yl)-6-(pyridin-4-yl)benzofuran-2-yl)butan-2-one]
10 | 1.31 | Cc1ccc(C(C)(O)CCc2oc3ccc(Br)cc3c2-c2ccc(C)o2)cc1 (stereo not shown) [Ex. 16, 4-(5-Bromo-3-(5-methylfuran-2-yl)benzofuran-2-yl)-2-p-tolylbutane-2-ol]
11 | 24.1 | CC(=O)CCc1oc2ccc(-c3cccc(O)c3)cc2c1-c1ccc(C)o1 [Ex. 4, 4-(5-(3-Hydroxyphenyl)-3-(5-methylfuran-2-yl)benzofuran-2-yl)butan-2-one]
12 | 7.18 | COc1cc(-c2ccc3c(-c4ccc(C)o4)c(CCC(C)=O)oc3c2)ccn1 [Ex. 23, 4-(6-(2-Methoxypyridin-4-yl)-3-(5-methylfuran-2-yl)benzofuran-2-yl)butan-2-one]
13 | 9.28 | CC(=O)CCc1oc2cc(-c3cccnc3)ccc2c1-c1ccc(F)cc1 [Ex. 31, 4-(3-(4-fluorophenyl)-6-(pyridin-3-yl)benzofuran-2-yl)butan-2-one HCl Salt]
14 | 11.8 | CC(=O)CCc1oc2cc(-c3cccnc3)ccc2c1-c1ccc(C)o1 [Ex. 24, 4-(3-(5-methylfuran-2-yl)-6-(pyridin-3-yl)benzofuran-2-yl)butan-2-one]
15 | 5.57 | CC(=O)CCc1oc2ccc(-c3cccs3)cc2c1-c1ccc(C)o1 [Ex. 8, 4-(3-(5-Methylfuran-2-yl)-5-(thiophen-2-yl)benzofuran-2-yl)butan-2-one]
16 | 4.27 | COc1ccc(-c2ccc3oc(CCC(C)=O)c(-c4ccc(C)o4)c3c2)cn1 [Ex. 2, 4-(5-(6-Methoxypyridin-3-yl)-3-(5-methylfuran-2-yl)benzofuran-2-yl)butan-2-one]
